Measured values from ChEMBL document CHEMBL1201862, “PubChem BioAssay data set” (2004).
One block for each compound: values may come before it. Calls of active or inactive are those of the source.

Legend:
[1] = StAR promoter reporter inhibition counter-screen, dose response, counter-screen for LRH-1 inverse agonist project, cell-based, luminescence, luciferase reporter (AID 651969); assay type: functional
[2] = biological target: Steroidogenic factor 1 (Homo sapiens, UniProt Q13285); test: Counterscreen for inverse agonists of the liver receptor homolog-1 (LRH-1; NR5A2): Luminescence-based cell-based high throughput dose response assay to identify inverse agonists of the Steroidogenic Factor 1 Nuclear Receptor (SF1; NR5A1).; assay type: functional
Chain of Steroidogenic factor 1 (Q13285 whole entry): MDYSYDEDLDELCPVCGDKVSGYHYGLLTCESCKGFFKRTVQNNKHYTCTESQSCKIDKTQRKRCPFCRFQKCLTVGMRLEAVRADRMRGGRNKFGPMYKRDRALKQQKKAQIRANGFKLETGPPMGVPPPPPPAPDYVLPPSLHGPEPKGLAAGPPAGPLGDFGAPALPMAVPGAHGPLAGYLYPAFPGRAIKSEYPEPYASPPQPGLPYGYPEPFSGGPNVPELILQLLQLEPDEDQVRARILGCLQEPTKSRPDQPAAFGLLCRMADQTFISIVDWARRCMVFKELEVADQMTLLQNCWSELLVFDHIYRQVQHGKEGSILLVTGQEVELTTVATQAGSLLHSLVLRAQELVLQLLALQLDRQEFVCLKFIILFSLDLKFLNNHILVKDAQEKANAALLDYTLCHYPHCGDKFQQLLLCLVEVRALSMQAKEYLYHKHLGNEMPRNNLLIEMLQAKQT

[3] = biological target: Nuclear receptor subfamily 5 group A member 2 (Homo sapiens, UniProt O00482); assay type: functional, cell-based;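 also: HEK293T cells transfected with LRH-1 and a StAR promoter luciferase reporter; potency for inhibitors that lower LRH-1 driven reporter light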
Chain of Nuclear receptor subfamily 5 group A member 2 (O00482 whole entry): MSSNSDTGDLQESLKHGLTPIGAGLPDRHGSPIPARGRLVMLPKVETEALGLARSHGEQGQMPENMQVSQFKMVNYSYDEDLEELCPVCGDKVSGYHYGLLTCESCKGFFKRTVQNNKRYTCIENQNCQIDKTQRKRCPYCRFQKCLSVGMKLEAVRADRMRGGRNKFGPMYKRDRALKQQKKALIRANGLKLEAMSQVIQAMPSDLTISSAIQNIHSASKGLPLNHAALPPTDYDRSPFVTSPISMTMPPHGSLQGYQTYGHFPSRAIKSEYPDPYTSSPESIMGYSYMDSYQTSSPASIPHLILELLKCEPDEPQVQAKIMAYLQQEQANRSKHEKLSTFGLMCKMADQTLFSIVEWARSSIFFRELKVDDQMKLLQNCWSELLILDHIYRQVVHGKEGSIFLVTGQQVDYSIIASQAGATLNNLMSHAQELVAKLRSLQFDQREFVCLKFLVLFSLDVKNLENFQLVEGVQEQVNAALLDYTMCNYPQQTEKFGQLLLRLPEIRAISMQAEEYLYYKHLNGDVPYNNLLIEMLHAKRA

[4] = biological target: T1, Sentrin-specific protease 8 (Homo sapiens, UniProt Q96LD8); assay type: functional
T1 sequence (Q96LD8 whole entry): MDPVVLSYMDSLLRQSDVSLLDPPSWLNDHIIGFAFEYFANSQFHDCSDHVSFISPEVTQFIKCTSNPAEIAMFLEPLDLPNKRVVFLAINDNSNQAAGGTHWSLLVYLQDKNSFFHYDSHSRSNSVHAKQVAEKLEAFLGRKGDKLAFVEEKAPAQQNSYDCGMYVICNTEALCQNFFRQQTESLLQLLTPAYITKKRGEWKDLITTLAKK

[5] = biological target: T2, Sentrin-specific protease 6 (Homo sapiens, UniProt Q9GZR1); assay type: functional;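 also: Luminescence-based dose-response confirmatory assay of SENP6 inhibition, following up an ultra-high-throughput screen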
T2 sequence (Q9GZR1 whole entry): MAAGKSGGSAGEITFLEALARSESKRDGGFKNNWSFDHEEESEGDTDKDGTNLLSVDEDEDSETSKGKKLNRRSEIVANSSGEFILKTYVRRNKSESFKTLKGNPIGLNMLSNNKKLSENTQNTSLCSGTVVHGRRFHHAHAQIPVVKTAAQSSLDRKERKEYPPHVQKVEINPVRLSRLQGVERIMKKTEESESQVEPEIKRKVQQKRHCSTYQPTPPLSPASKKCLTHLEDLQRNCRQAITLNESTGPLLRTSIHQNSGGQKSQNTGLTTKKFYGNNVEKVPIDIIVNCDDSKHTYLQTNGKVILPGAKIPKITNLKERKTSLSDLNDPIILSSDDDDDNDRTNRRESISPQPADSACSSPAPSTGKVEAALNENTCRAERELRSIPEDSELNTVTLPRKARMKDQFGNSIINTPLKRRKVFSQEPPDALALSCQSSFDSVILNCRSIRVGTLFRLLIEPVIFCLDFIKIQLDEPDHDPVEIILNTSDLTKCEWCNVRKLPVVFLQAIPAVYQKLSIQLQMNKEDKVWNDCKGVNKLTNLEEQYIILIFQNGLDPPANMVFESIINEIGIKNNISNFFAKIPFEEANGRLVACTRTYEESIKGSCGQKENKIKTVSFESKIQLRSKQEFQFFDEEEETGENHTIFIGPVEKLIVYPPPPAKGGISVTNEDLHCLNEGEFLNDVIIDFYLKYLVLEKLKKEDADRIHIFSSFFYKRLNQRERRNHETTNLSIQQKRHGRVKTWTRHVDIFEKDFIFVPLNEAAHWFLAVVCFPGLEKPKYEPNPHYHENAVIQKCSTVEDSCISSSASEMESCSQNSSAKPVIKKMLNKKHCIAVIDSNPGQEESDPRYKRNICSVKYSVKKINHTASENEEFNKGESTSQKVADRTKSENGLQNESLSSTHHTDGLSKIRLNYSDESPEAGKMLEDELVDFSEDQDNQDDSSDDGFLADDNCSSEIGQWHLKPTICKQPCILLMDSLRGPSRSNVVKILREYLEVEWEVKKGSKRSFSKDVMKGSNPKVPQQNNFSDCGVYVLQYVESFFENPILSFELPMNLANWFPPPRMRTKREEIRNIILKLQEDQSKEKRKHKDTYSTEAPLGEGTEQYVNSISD

[6] = biological target: T3, Caspase-3 (Homo sapiens, UniProt P42574); assay type: functional
T3 sequence (P42574 whole entry): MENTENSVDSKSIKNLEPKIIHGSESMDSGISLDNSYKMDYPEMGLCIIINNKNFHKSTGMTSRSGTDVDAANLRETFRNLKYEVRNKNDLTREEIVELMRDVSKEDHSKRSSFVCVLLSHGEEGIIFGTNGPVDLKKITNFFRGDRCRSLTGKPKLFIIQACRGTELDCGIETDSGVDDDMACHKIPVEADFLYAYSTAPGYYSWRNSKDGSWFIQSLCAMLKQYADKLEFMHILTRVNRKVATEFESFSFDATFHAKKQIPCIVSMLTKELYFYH

[7] = biological target: T4, Sentrin-specific protease 7 (Homo sapiens, UniProt Q9BQF6); assay type: functional;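 also: Luminescence-based dose-response confirmation of ultra-high-throughput screening hits, measuring inhibition of SENP7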
T4 sequence (Q9BQF6 whole entry): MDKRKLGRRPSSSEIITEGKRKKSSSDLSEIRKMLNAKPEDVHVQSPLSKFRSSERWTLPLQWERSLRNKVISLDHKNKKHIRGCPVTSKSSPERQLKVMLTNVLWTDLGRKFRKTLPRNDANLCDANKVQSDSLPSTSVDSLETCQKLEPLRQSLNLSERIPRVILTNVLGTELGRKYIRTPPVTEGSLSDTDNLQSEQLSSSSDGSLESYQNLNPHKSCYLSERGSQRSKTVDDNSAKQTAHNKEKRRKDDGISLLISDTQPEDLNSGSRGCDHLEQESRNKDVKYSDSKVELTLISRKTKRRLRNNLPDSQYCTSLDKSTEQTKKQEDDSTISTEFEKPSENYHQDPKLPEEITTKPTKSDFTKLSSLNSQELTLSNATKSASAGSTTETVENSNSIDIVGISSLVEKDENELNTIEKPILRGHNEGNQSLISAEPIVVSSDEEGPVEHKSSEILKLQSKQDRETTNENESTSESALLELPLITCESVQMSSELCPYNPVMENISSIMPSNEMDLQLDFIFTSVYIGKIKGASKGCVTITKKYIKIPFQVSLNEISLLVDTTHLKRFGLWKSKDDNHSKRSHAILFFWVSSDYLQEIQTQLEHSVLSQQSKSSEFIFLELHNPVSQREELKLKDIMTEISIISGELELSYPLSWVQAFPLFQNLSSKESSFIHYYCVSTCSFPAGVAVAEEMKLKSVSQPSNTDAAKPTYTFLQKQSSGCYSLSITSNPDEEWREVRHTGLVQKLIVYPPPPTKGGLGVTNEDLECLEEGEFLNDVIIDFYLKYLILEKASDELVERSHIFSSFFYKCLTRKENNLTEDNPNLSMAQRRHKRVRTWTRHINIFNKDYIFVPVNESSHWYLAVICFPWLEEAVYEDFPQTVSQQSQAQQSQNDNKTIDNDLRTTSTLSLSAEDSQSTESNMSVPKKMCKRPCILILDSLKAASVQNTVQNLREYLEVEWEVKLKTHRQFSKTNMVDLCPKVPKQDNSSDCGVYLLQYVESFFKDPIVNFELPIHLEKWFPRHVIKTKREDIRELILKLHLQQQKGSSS

[8] = biological target: Protein Wnt-3a (Mus musculus, UniProt P27467); test: Wnt3a-driven reporter signaling inhibition, dose response, selectivity assay for Gli-SUFU antagonist project, Wnt-LIGHT cells, luminescence (AID 651570); assay type: functional; settings: read-out: IC50_Mean;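 also: Wnt-LIGHT reporter cells stimulated with conditioned medium from Wnt3a-producing cells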
Chain of Protein Wnt-3a (P27467 whole entry): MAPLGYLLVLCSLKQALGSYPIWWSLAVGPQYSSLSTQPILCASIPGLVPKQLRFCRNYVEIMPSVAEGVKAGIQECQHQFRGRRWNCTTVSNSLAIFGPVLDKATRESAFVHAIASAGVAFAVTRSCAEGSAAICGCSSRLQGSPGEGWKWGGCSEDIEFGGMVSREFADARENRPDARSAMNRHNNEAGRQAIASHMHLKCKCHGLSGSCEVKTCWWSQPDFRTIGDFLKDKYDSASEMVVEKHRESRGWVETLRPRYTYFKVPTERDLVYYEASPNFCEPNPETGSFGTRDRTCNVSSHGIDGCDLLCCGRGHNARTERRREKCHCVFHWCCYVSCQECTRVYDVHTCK

[9] = biological target: T1, Sentrin-specific protease 8; assay type: functional; remark: listed apart in the source
[10] = biological target: T1, Sentrin-specific protease 8; assay type: functional; remark: listed apart in the source
[11] = biological target: T3, Caspase-3; test: Dose-response confirmation of uHTS inhibitor hits of Sentrin-Specific Protease 8 in a Caspase-3 Fluorescence assay.; assay type: functional
[12] = biological target: T5, Sentrin-specific protease 1 (Homo sapiens, UniProt Q9P0U3); test: potency of human SENP1 inhibitors, dose response, biochemical, kinetic FRET (AID 651697); assay type: functional; settings: read-out: IC50_Mean
T5 sequence (Q9P0U3 whole entry): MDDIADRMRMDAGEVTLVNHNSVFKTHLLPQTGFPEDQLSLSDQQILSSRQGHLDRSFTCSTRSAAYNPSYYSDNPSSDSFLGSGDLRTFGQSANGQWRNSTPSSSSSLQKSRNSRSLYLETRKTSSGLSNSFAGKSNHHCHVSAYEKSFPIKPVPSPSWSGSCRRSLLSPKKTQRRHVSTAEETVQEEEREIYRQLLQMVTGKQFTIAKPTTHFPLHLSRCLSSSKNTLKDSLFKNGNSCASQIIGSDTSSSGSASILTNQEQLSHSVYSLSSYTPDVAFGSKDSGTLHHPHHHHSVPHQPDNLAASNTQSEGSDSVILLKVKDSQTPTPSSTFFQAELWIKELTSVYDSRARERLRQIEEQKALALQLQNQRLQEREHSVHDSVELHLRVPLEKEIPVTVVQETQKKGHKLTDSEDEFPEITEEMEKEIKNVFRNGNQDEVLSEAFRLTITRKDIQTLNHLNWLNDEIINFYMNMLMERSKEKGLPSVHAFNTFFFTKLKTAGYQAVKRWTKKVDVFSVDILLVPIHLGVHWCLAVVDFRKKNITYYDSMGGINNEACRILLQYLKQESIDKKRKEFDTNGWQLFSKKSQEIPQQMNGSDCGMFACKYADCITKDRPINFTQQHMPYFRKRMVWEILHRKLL

[13] = biological target: T5, Sentrin-specific protease 1; test: Dose response confirmation of small molecule inhibitors of the catalytic domain of the SUMO protease, SENP1 in a FRET assay.; assay type: functional; settings: read-out: IC50_Mean

- IC50 [11]: 100 µM (inactive)
Structure (SMILES): O=C1CC(N2CCOCC2)=NN1c1ccc([N+](=O)[O-])cc1
- IC50 [9]: 24.6 µM (active)
- IC50 [10]: 11.7 µM (active)

- IC50 [12]: 35.9 µM (inactive)
- IC50 [13]: 30.6 µM (inactive)
Structure (SMILES): Cc1ccc2cc3c(N)c(C(=O)N4CCOCC4)sc3nc2c1

Continued, compound first:

Structure (SMILES): COC(=O)c1ccc(NC(=O)CN2CCN(c3ccc(Cl)cc3)CC2)cc1
- IC50 [1]: 35.9 µM (inactive)
- IC50 [2]: 30.7 µM (inactive)
- IC50 [3]: 35.9 µM (inactive)

Structure (SMILES): CCOc1ccc2nc(NC(=O)CSc3cnn[nH]3)sc2c1
- IC50 [4]: 44.1 µM (active)
- IC50 [5]: 32.8 µM (active)
- IC50 [6]: 16.3 µM (active)
- IC50 [7]: 11.7 µM (active)

Structure (SMILES): Clc1ccc(-c2c[n+](-c3ccccc3)c3n2CCS3)cc1
- IC50 [8]: 22.5 µM (inactive)

Structure (SMILES): O=[N+]([O-])c1ccc(N2CCN(C(=S)NCc3ccc(Cl)cc3)CC2)cc1
- IC50 [8]: 5.08 µM (active)
